Measurements: a compilation of properties of binary mixtures (doi:10.1021/je050444g)

Experiment: excess molar enthalpy (molar enthalpy of mixing); xn = mol fraction of the nth substance listed
Settings: 308.15 K, 100 kPa

CC1COC(=O)O1 (stereo unspecified) + CS(C)=O
Settings	excess molar enthalpy [kcal/mol]
x2 = 0.0571	0.0186
x2 = 0.108	0.0332
x2 = 0.1538	0.0457
x2 = 0.195	0.0545
x2 = 0.2666	0.0703
x2 = 0.3264	0.0803
x2 = 0.4209	0.0915
x2 = 0.492	0.0989
x2 = 0.6857	0.0949
x2 = 0.7441	0.0856
x2 = 0.8135	0.0712
x2 = 0.9458	0.0263
x2 = 0.9721	0.0139

CCOC(=O)OCC + CS(C)=O
Settings	excess molar enthalpy [kcal/mol]
x2 = 0.0666	0.0901
x2 = 0.1249	0.146
x2 = 0.1764	0.183
x2 = 0.2221	0.208
x2 = 0.3635	0.247
x2 = 0.4614	0.252
x2 = 0.6315	0.232
x2 = 0.7199	0.206
x2 = 0.7741	0.179
x2 = 0.8371	0.149
x2 = 0.8727	0.125
x2 = 0.9115	0.0939
x2 = 0.932	0.0755
x2 = 0.9536	0.0547

CS(C)=O + COC(=O)OC
Settings	excess molar enthalpy [kcal/mol]
x1 = 0.0473	0.0447
x1 = 0.0904	0.0755
x1 = 0.1297	0.0989
x1 = 0.1657	0.111
x1 = 0.2296	0.129
x1 = 0.3735	0.147
x1 = 0.5438	0.145
x1 = 0.6414	0.138
x1 = 0.7045	0.127
x1 = 0.7815	0.112
x1 = 0.8267	0.097
x1 = 0.8774	0.077
x1 = 0.9051	0.0631
x1 = 0.9662	0.0246
